Legend:
Type in all cases: cell-based
IGROV = assay: SRB colorimetric cell growth inhibition assay, IGROV; details: Homo sapiens, IGROV
Description: (§1) The finality of these assays is to interrupt the growth of an “in vitro” tumor cell culture by means a continued exhibition of the cells to the sample to be testing.
(§2) A colorimetric type of assay, using sulforhodamine B (SRB) reaction has been adapted for a quantitative measurement of cell growth and viability (following the technique described by P. A. Skehan, et al., J. Natl. Cancer Inst. 1990, 82, 1107-1112).
(§3) This form of assay employs 96 well cell culture microplates of 9 mm diameter (T. Mosmann et al., J. of Immunological Methods 1983, 65, 55-63; G. T. Faircloth et al., J. of Tissue and Culture Methods 1988, 11, 201-205).
(§4) Most of the cell lines are obtained from American Type Culture Collection (ATCC) derived from different human cancer types.
(§5) The values for mean +/− SD of data from triplicate wells are calculated. Some parameters for cellular responses can be calculated: GI=growth inhibition, TGI=total growth inhibition (cytostatic effect) and LC=cell killing (cytotoxic effect).

PANC-1 = assay: SRB colorimetric cell growth inhibition assay, PANC-1; details: Homo sapiens, PANC-1, PANC-1
Description: as §1, §2, §3, §4, §5

A-549 = assay: SRB colorimetric cell growth inhibition assay, A-549; details: Homo sapiens, A549, A-549
Description: as §1, §2, §3, §4, §5

LoVo = assay: SRB colorimetric cell growth inhibition assay, LoVo; details: Homo sapiens, LoVo
Description: as §1, §2, §3, §4, §5

HeLa = assay: SRB colorimetric cell growth inhibition assay, HeLa; details: Homo sapiens, HeLa
Description: as §1, §2, §3, §4, §5

LoVo-Dox = assay: SRB colorimetric cell growth inhibition assay, LoVo-Dox (MDR); details: Homo sapiens, LOVO-DOX
Description: as §1, §2, §3, §4, §5

HT-29 = assay: SRB colorimetric cell growth inhibition assay, HT-29; details: Homo sapiens, HT-29, HT-29
Description: as §1, §2, §3, §4, §5

K-562 = assay: SRB colorimetric cell growth inhibition assay, K-562; details: Homo sapiens, K562, K-562
Description: as §1, §2, §3, §4, §5

DU-145 = assay: SRB colorimetric cell growth inhibition assay, DU-145; details: Homo sapiens, DU-145, DU-145
Description: as §1, §2, §3, §4, §5

IGROV-ET = assay: SRB colorimetric cell growth inhibition assay, IGROV-ET (ET-743 resistant); details: Homo sapiens, IGROV-ET
Description: as §1, §2, §3, §4, §5

HeLa-APL = assay: SRB colorimetric cell growth inhibition assay, HeLa-APL (aplidine resistant); details: Homo sapiens, HELA-APL
Description: as §1, §2, §3, §4, §5

SK-BR-3 = assay: SRB colorimetric cell growth inhibition assay, SK-BR-3; details: Homo sapiens, SK-BR-3, SK-BR-3
Description: as §1, §2, §3, §4, §5

Q: How did the GI50 (IGROV; GI=growth inhibition, read-out: GI50 IGROV) turn out when `C=CCOC(=O)N[C@@H](C)C(=O)Oc1ccc(-c2c3c4cc(OC)c(OC(=O)[C@H](C)NC(=O)OCC=C)cc4oc(=O)c3n3ccc4cc(OC(=O)[C@H](C)NC(=O)OCC=C)c(OC)cc4c23)cc1OC` [Compound 210] was run?
A: 317 nM

Q: What about the CC50 (IGROV; cell killing (cytotoxic effect), read-out: LC50 IGROV) of the same molecule?
A: 3650 nM

Q: What about the IC (TGI) (IGROV; total growth inhibition (cytostatic effect), read-out: TGI IGROV) of the same molecule?
A: 1060 nM

Q: What about the GI50 (PANC-1; GI=growth inhibition, read-out: GI50 PANC-1) of the same molecule?
A: 398 nM

Q: And the CC50 (PANC-1; cell killing (cytotoxic effect), read-out: LC50 PANC-1)?
A: 4870 nM

Q: And the IC (TGI) (PANC-1; total growth inhibition (cytostatic effect), read-out: TGI PANC-1)?
A: 1510 nM

Q: What about the GI50 (A-549; GI=growth inhibition, read-out: GI50 A-549) of the same molecule?
A: 477 nM

Q: What about the CC50 (A-549; cell killing (cytotoxic effect), read-out: LC50 A-549) of the same molecule?
A: 10400 nM

Q: And the IC (TGI) (A-549; total growth inhibition (cytostatic effect), read-out: TGI A-549)?
A: 3940 nM

Q: And the GI50 (LoVo; GI=growth inhibition, read-out: GI50 LOVO)?
A: 2050 nM

Q: And the CC50 (LoVo; cell killing (cytotoxic effect), read-out: LC50 LOVO)?
A: 7760 nM

Q: What about the IC (TGI) (LoVo; total growth inhibition (cytostatic effect), read-out: TGI LOVO) of the same molecule?
A: 3990 nM

Q: And the GI50 (HeLa; GI=growth inhibition, read-out: GI50 HELA)?
A: 611 nM

Q: And the CC50 (HeLa; cell killing (cytotoxic effect), read-out: LC50 HELA)?
A: 10400 nM

Q: And the IC (TGI) (HeLa; total growth inhibition (cytostatic effect), read-out: TGI HELA)?
A: 5540 nM

Q: What about the GI50 (LoVo-Dox; GI=growth inhibition, read-out: GI50 LOVO-DOX) of the same molecule?
A: 2430 nM

Q: And the CC50 (LoVo-Dox; cell killing (cytotoxic effect), read-out: LC50 LOVO-DOX)?
A: 10400 nM

Q: What about the IC (TGI) (LoVo-Dox; total growth inhibition (cytostatic effect), read-out: TGI LOVO-DOX) of the same molecule?
A: 6040 nM

Q: What about the GI50 (HT-29; GI=growth inhibition, read-out: GI50 HT-29) of the same molecule?
A: 7090 nM

Q: And the CC50 (HT-29; cell killing (cytotoxic effect), read-out: LC50 HT-29)?
A: 10400 nM

Q: What about the IC (TGI) (HT-29; total growth inhibition (cytostatic effect), read-out: TGI HT-29) of the same molecule?
A: 10400 nM

Q: What about the GI50 (K-562; GI=growth inhibition, read-out: GI50 K-562) of the same molecule?
A: 612 nM

Q: What about the CC50 (K-562; cell killing (cytotoxic effect), read-out: LC50 K-562) of the same molecule?
A: 6170 nM

Q: And the IC (TGI) (K-562; total growth inhibition (cytostatic effect), read-out: TGI K-562)?
A: 2130 nM

Q: And the GI50 (DU-145; GI=growth inhibition, read-out: GI50 DU-145)?
A: 181 nM

Q: What about the CC50 (DU-145; cell killing (cytotoxic effect), read-out: LC50 DU-145) of the same molecule?
A: 631 nM

Q: And the IC (TGI) (DU-145; total growth inhibition (cytostatic effect), read-out: TGI DU-145)?
A: 339 nM

Q: And the GI50 (IGROV-ET; GI=growth inhibition, read-out: GI50 IGROV-ET)?
A: 145 nM

Q: And the CC50 (IGROV-ET; cell killing (cytotoxic effect), read-out: LC50 IGROV-ET)?
A: 920 nM

Q: And the IC (TGI) (IGROV-ET; total growth inhibition (cytostatic effect), read-out: TGI IGROV-ET)?
A: 366 nM

Q: What about the GI50 (HeLa-APL; GI=growth inhibition, read-out: GI50 HELA-APL) of the same molecule?
A: 516 nM

Q: What about the CC50 (HeLa-APL; cell killing (cytotoxic effect), read-out: LC50 HELA-APL) of the same molecule?
A: 10400 nM

Q: What about the IC (TGI) (HeLa-APL; total growth inhibition (cytostatic effect), read-out: TGI HELA-APL) of the same molecule?
A: 3080 nM

Q: What about the GI50 (SK-BR-3; GI=growth inhibition, read-out: GI50 SK-BR-3) of the same molecule?
A: 397 nM

Q: And the CC50 (SK-BR-3; cell killing (cytotoxic effect), read-out: LC50 SK-BR-3)?
A: 4590 nM

Q: What about the IC (TGI) (SK-BR-3; total growth inhibition (cytostatic effect), read-out: TGI SK-BR-3) of the same molecule?
A: 1360 nM
